{
  "source": "patent US20250009748A1",
  "about": "(NAVIRE PHARMA, INC., priority 2021, published 2025)",
  "key": {"[1]": {"test": "Tolerability (body weight, mouse loss) in NCI-H358 xenograft study (Example 1)", "settings": "for Mouse loss and observations: n = 8 mice/group; for Mean body weight change: Day 29, n = 10", "method": "Dosing started ˜2 weeks post the subcutaneous implantation of the tumor cells. […] Tumor volume was measured twice a week. The body weight and tumor volume were captured in the StudyDirector software version 3.1.399.19 (StudyLog).\nData were analyzed using Microsoft Excel and GraphPad Prism 8.0. Day 0 was the day before treatment started.\nBWi and BW0 are the body weight of an individual mouse on measurement day I and on day 0, respectively."}, "[2]": {"test": "LC-MS/MS plasma concentration of formula (10b) and Compound A at end of efficacy study (Example 1)", "assay_type": "in vivo, NOD/SCID mice", "settings": "for concentration at 2 h / concentration at 8 h: NOD/SCID, mouse, plasma, oral; for concentration at 2 h: Compound A Plasma concentration", "source_text": "Blood collection for pharmacokinetic analysis. Blood from live animals for pharmacokinetic (PK) analyses was obtained via the retro-orbital sinus. The mouse was grasped firmly behind the ears and rotated slightly to one side so that a disposable, sterile microcapillary tube could be inserted behind the eyeball and gently rotated to break the sinus cavity. Blood flowed through the capillary tube, directly into a K2 EDTA tube (Jiangsu KangJian Medical Apparatus Corporation #044022) to a volume of 100 μL. Blood in the tube was inverted several times to distribute the EDTA evenly. To separate plasma, tubes were centrifuged in a bench top centrifuge (Eppendorf, Model 5424R) for 5 minutes at 8000 rpm without braking. The supernatant (plasma) was carefully transferred to a microcentrifuge tube and placed onto dry ice prior to storage at −80° C.\nFor plasma sample analysis, 20 μL of each sample was precipitated with 200 μL of acetonitrile containing Glipizide (100 ng/mL) as an internal standard. This suspension was vortexed for 1 min and centrifuged at 4,000 rpm for 10 min, after which 80 μL of the extract was aliquoted for LC-MS/MS analysis. LC-MS/MS analysis was conducted on a Shimadzu Nexera UHPLC system coupled with a Sciex 6500 TQ-S triple quadrupole mass spectrometer (MS/MS) operated at the positive mode (ESI+). […] The injection volume was 2 μL. The LC mobile phase A was 0.025% formic acid-water containing 1 mM ammonium acetate and B was 100% methanol containing 5 mM ammonium acetate. The gradient (% B) was 2% (0-0.4 min), 2-65% ([…]), 65-90% (0.7 to 1.3 min), 90% (1.3-1.9 min), 90-2% (1.9 to 1.91 min), 2% (1.91-2.5 min). The flow rate was 0.6 mL/min. The column temperature was 60° C."}, "[3]": {"system": "NCI-H358 subcutaneous cell line-derived tumors (NSCLC, KRAS G12C)", "test": "NCI-H358 subcutaneous cell line-derived xenograft, formula (10b) and sotorasib (Example 2)", "assay_type": "in vivo, NOD/SCID mice", "settings": "Day 29, n = 10; for Mean Tumor REG: Formula (10b) 100 mg/kg QD PO", "source_text": "(§1) Tumor Cell Line Culture. […] Passage 9 NCI-H358 cells were thawed and expanded, and passage 13 cells were harvested for inoculations. […] Passage 6 NCI-H2122 cells were thawed and expanded, and passage 14 cells were harvested for inoculations.\n(§2) Animal Inoculations and Randomization. All experiments were reviewed and approved by the Crown Bioscience, Inc., Institutional Animal Care and Use Committee (IACUC) prior to execution and performed in accordance with the regulations of the Association for Assessment and Accreditation of Laboratory Animal Care (AAALAC). […] Mice were randomized into four groups (10 mice/group) by tumor volume (size mm^3) 13 days post cell inoculation when the mean tumor volume was 160 mm^3. […] Mice were randomized into four groups (10 mice/group) by tumor volume (size mm^3) 9 days post cell inoculation when the mean tumor volume was 180 mm^3.\n(§3) Tumor and Body Weight Measurements. […] Dosing as well as tumor and body weight measurements were conducted in a Laminar flow cabinet.\n(§4) Statistical analyses. Statistical analyses were performed with GraphPad Prism software (version 9). For statistical analyses comparing the vehicle group to all other groups, two-way repeated-measures analysis of variance (ANOVA) followed by post hoc Tukey's multiple comparisons test of the means was applied over the indicated number of days. For statistical analyses comparing the monotherapy and combination groups, two-way repeated-measures ANOVA was performed between each monotherapy group mean and combination group mean over the number of indicated days. A p value of less than 0.05 was considered statistically significant.\nFemale NOD/SCID mice were implanted subcutaneously with NSCLC NCI-H358 tumor cells. […] Mouse tumor volumes were measured twice weekly until day 34 and results are shown through day 29."}, "[4]": {"test": "Tolerability / body weight in NCI-H2122 study (Example 2)", "description": "Body weights (BW) were also recorded twice weekly. […] Mean body weight changes (±SEM) were recorded for group.\nExperimental Endpoints. Animal health was monitored at least twice weekly through behavioral observations and weight checks. After tumor inoculation, the animals were checked daily for morbidity and mortality. During routine monitoring, the animals were checked for any effects of tumor growth and treatments on behavior such as mobility, food and water consumption, body weight gain/loss, eye/hair matting, and any other abnormalities.\nStudy endpoint was defined when animals reached one of the following criteria for euthanasia: ≥20% body weight loss at any time versus day 1, ≥15% body weight loss for 72 hours versus day 1, individual tumor volume of ≥3000 mm^3, or all mice in each group were euthanized when the mean tumor volume reached ≥2000 mm^3."}, "[5]": {"system": "NCI-H2122 subcutaneous cell line-derived tumors (NSCLC, KRAS G12C, KEAP1, STK11)", "test": "NCI-H2122 subcutaneous cell line-derived xenograft, formula (10b) and sotorasib (Example 2)", "assay_type": "in vivo, BALB/c nude mice", "settings": "Day 21, n = 10; for TGI: Formula (10b) 100 mg/kg QD PO", "source_text": "as §1, §2, §3, §4"}, "[6]": {"system": "NCI-H358 subcutaneous tumors (human NSCLC, KRAS G12C)", "test": "NCI-H358 subcutaneous xenograft efficacy study, formula (10b) and Compound A (Example 1)", "assay_type": "in vivo, NOD/SCID mice", "settings": "for Day 21 TGI: n = 8", "source_text": "Cell lines. The NCI-H358 cell line was purchased from ATCC. It is a human NSCLC cell line, harboring heterozygous mutation of KRAS G12C.\nTest animals. Female NOD/SCID mice (Beijing Anikeeper Biotech Co., Ltd) were utilized in this experiment. Animals were 6˜8 weeks of age at the time of xenograft implantation. The protocol and any amendment(s) or procedures involving the care and use of animals in this study was reviewed and approved by the Institutional Animal Care and Use Committee (IACUC) of Crown Bioscience Ltd. prior to execution. During the study, the care and use of animals was conducted in accordance with the regulations of the Association for Assessment and Accreditation of Laboratory Animal Care (AAALAC).\nIn vivo modeling, treatment and data analysis.\nWhen the average tumor volume reached 250 mm^3, mice were randomized into groups of 8 based on both tumor volume and body weight.\nTumor volume was measured twice a week.\nDay 0 was the day before treatment started.\nTi and Ci are the mean tumor volumes of the treatment and vehicle groups on the measurement day, respectively; C0 is the mean tumor volume of the vehicle group on day 0.\nTumor volume was monitored bi-weekly by caliper and body weights were recorded. Data presented in FIGS. 1A-1E represent mean±SEM, and N=8 mice/group for FIGS. 1B-1E and N=10 mice/group for FIG. 1A."}},
  "note": "“Also recorded” adds a separate entry of the source.",
  "data": [
    {"smiles": "C=CC(=O)N1CCN(c2nc(=O)n(-c3c(C)ccnc3C(C)C)c3nc(-c4c(O)cccc4F)c(F)cc23)[C@@H](C)C1", "note": "[Compound A, 6-fluoro-7-(2-fluoro-6-hydroxyphenyl)-1-[4-methyl-2-(propan-2-yl)pyridin-3-yl]-4-[(2S)-2-methyl-4-(prop-2-enoyl)piperazin-1-yl]pyrido[2,3-d]pyrimidin-2(1H)-one, reference compound]", "values": [
      {"measurement": "Mouse loss and observations", "setting": "[1]; Compound A 30 mg/kg QD", "result": "None"},
      {"measurement": "Mouse loss and observations", "setting": "[1]; Compound A 100 mg/kg QD, dosing day of removal", "result": "None"},
      {"measurement": "Mean body weight change", "setting": "[1]; Compound A 10 mg/kg QD", "result": "−0.3", "unit": "%"},
      {"measurement": "Compound A Plasma concentration", "setting": "[2]; 2 hours after final dose of Compound A, Compound A 30 mg/kg QD, mean ± SD, N = 4, 30 mg/kg", "result": "2.02 ± 0.31", "unit": "µM"},
      {"measurement": "Compound A Plasma concentration", "setting": "[2]; 2 hours after final dose of Compound A, Compound A 100 mg/kg QD, mean ± SD, N = 4, 100 mg/kg", "result": "8.77 ± 7.25", "unit": "µM"},
      {"measurement": "Formula (10b) Plasma concentration", "setting": "[2]; Compound A 30 mg/kg QD alone, BQL = below quantitation limit (3 nM)", "result": "BQL"},
      {"measurement": "Formula (10b) Plasma concentration", "setting": "[2]; Compound A 100 mg/kg QD alone, BQL = below quantitation limit (3 nM)", "result": "BQL"},
      {"measurement": "concentration at 2 h", "setting": "[2]; 30 mg/kg, 2 hours after final dose of Compound A, Compound A 30 mg/kg QD, mean ± SD, N = 4", "result": 2, "unit": "µM"},
      {"measurement": "concentration at 2 h", "setting": "[2]; 100 mg/kg, 2 hours after final dose of Compound A, Compound A 100 mg/kg QD, mean ± SD, N = 4", "result": 8.8, "unit": "µM"}
    ]},
    {"smiles": "Cc1c(N2CCC3(CC2)CO[C@@H](C)[C@H]3N)nc(C)n(-c2cccc(Cl)c2Cl)c1=O", "note": "(atropisomer, axis not shown; (Ra)) [Formula (10b), 6-((3S,4S)-4-amino-3-methyl-2-oxa-8-azaspiro[4.5]decan-8-yl)-3-(Ra)-(2,3-dichlorophenyl)-2,5-dimethylpyrimidin-4(3H)-one]", "values": [
      {"measurement": "Mean Tumor Volume (±SEM)", "setting": "[3]; Formula (10b) 100 mg/kg QD PO day 1-28", "result": "138 (±17) mm^3"},
      {"measurement": "Mean Tumor REG", "setting": "[3]", "result": 14, "unit": "%"},
      {"measurement": "Mean Tumor REG", "setting": "[3]; listed as formula (10b)", "result": 14, "unit": "%"},
      {"measurement": "body weight loss", "setting": "[4]; formula (10b) 100 mg/kg QD monotherapy, several mice, group placed on diet gel day 11-21", "result": "over 10%"},
      {"measurement": "Mean body weight change", "setting": "[1]; Formula (10b) 100 mg/kg QD", "result": "−6.5", "unit": "%"},
      {"measurement": "Mouse loss and observations", "setting": "[1]; Formula (10b) 50 mg/kg QD, each event = one mouse, BWL = body weight loss", "result": "Day 3 (BWL); also recorded: Day 12 (BWL); also recorded: Day 19 (BWL)"},
      {"measurement": "Mouse loss and observations", "setting": "[1]; Formula (10b) 100 mg/kg QD, each event = one mouse", "result": "Day 18 (Found dead); also recorded: Day 21 (Found dead)"},
      {"measurement": "Mean Tumor Volume (±SEM)", "setting": "[5]; Formula (10b) 100 mg/kg QD PO day 1-21", "result": "590 (±48) mm^3"},
      {"measurement": "TGI", "setting": "[5]", "result": 58, "unit": "%"},
      {"measurement": "TGI", "setting": "[5]; listed as formula (10b)", "result": 58, "unit": "%"},
      {"measurement": "Formula (10b) Plasma concentration", "setting": "[2]; 8 hours after final dose of formula (10b), Formula (10b) 50 mg/kg QD, mean ± SD, N = 4", "result": "4.44 ± 1.05", "unit": "µM"},
      {"measurement": "Formula (10b) Plasma concentration", "setting": "[2]; 8 hours after final dose of formula (10b), Formula (10b) 100 mg/kg QD, mean ± SD, N = 4", "result": "7.54 ± 1.60", "unit": "µM"},
      {"measurement": "Compound A Plasma concentration", "setting": "[2]; Formula (10b) 50 mg/kg QD alone, BQL = below quantitation limit (3 nM)", "result": "BQL"},
      {"measurement": "Compound A Plasma concentration", "setting": "[2]; Formula (10b) 100 mg/kg QD alone, BQL = below quantitation limit (3 nM)", "result": "BQL"},
      {"measurement": "concentration at 8 h", "setting": "[2]; 50 mg/kg, 8 hours after final dose of formula (10b), Formula (10b) 50 mg/kg QD, mean ± SD, N = 4", "result": 4.4, "unit": "µM"},
      {"measurement": "concentration at 8 h", "setting": "[2]; 100 mg/kg, 8 hours after final dose of formula (10b), Formula (10b) 100 mg/kg QD, mean ± SD, N = 4", "result": 7.5, "unit": "µM"},
      {"measurement": "Mean tumor regression", "setting": "[6]; Day 29, Formula (10b) 100 mg/kg QD PO, n = 10, FIG. 1A", "result": 14, "unit": "%"},
      {"measurement": "Number of regressions", "setting": "[6]; Day 29, Formula (10b) 100 mg/kg QD, n = 10", "result": "8/10"},
      {"measurement": "Day 21 TGI", "setting": "[6]; Formula (10b) 50 mg/kg QD PO", "result": 46, "unit": "%"},
      {"measurement": "Day 21 TGI", "setting": "[6]; Formula (10b) 50 mg/kg QD PO, listed as formula (10b)", "result": 46, "unit": "%"},
      {"measurement": "Day 21 TGI", "setting": "[6]; Formula (10b) 100 mg/kg QD PO", "result": 89, "unit": "%"},
      {"measurement": "Day 21 TGI", "setting": "[6]; Formula (10b) 100 mg/kg QD PO, listed as formula (10b)", "result": 89, "unit": "%"},
      {"measurement": "effect on growth of NCI-H358 tumors (in words)", "setting": "[6]; formula (10b) monotherapy at 100 mg/kg QD", "result": "approximately tumor stasis"}
    ]},
    {"smiles": "C=CC(=O)N1CCN(c2nc(=O)n(-c3c(C)ccnc3C(C)C)c3nc(-c4c(O)cccc4F)c(F)cc23)[C@@H](C)C1", "note": "[Sotorasib, reference compound]", "values": [
      {"measurement": "tolerability / impact on body weights", "setting": "[4]; sotorasib 100 mg/kg QD monotherapy, FIG. 3B", "result": "well tolerated"}
    ]}
  ]
}
